Experimental data published in patent US20230203004A1, “RSV INHIBITING 3-SUBSTITUTED QUINOLINE AND CINNOLINE DERIVATIVES” (Janssen Sciences Ireland Unlimited Company, priority 2020, published 2023).
Read-outs that look alike come from different tables or passages of the source.

Columns and labels:
rgRSV224 virus = test: Antiviral activity: rgRSV224 (GFP) replication in HeLa cells; type: cell-based, respiratory syncytial virus (RSV)
Method: (§1) Black 384-well clear-bottom microtiter plates (Corning, Amsterdam, The Netherlands) were filled via acoustic drop ejection using the echo liquid handler (Labcyte, Sunnyvale, California). 200 nL of compound stock solutions (100% DMSO) were transferred to the assay plates. 9 serial 4-fold dilutions of compound were made, creating per quadrant the same compound concentration. The assay was initiated by adding 10 µL of culture medium to each well (RPMI medium without phenol red, 10% FBS-heat inactivated, 0.04% gentamycin (50 mg/mL). All addition steps are done by using a multidrop dispenser (Thermo Scientific, Erembodegem, Belgium). Next, rgRSV224 virus (MOI = 1) diluted in culture medium was added to the plates. rgRSV224 virus is an engineered virus that includes an additional GFP gene (Hallak LK, Spillmann D, Collins PL, Peeples ME. Glycosaminoglycan sulfation requirements for respiratory syncytial virus infection; Journal of virology (2000), 74(22), 10508-13) and was in-licensed from the NIH (Bethesda, MD, USA). Finally, 20 µL of a HeLa cell suspension (3,000 cells/well) were plated. Medium, virus- and mock-infected controls were included in each test. The wells contain […] DMSO per volume. Cells were incubated at 37° C. in a 5% CO2 atmosphere. Three days post-virus exposure, viral replication was quantified by measuring GFP expression in the cells by an in house developed MSM laser microscope (Tibotec, Beerse, Belgium). The EC50 was defined as the 50% inhibitory concentration for GFP expression. In parallel, compounds were incubated for three days in a set of white 384-well microtiter plates (Corning) and the cytotoxicity of compounds in HeLa cells was determined by measuring the ATP content of the cells using the ATPlite kit (Perkin Elmer, Zaventem, Belgium) according to the manufacturer’s instructions. The CC50 was defined as the 50% concentration for cytotoxicity.

[1] = Cytotoxicity in HeLa cells (ATP content, ATPlite kit); type: cell-based; conditions: human
Method: as §1

[2] = read-out: RSV HELA EC50, HeLa cells, rgRSV224 MOI = 1, GFP expression three days post-virus exposure, averaged data of several repeat experiments
[3] = human respiratory syncytial virus, HeLa, 72 h, read-out: RSV HELA EC50, HeLa cells, rgRSV224 MOI = 1, GFP expression three days post-virus exposure, averaged data of several repeat experiments

SMILES	EC50 (rgRSV224 virus; [2]) [µM]	CC50 at 3 days ([1]; TOX HELA CC50) [µM]	EC50 (rgRSV224 virus; [3]) [µM]	EC50 (rgRSV224 virus; human respiratory syncytial virus, HeLa, comparison table 5.3, antiviral RSV assay of Example 5.1) [µM]	CC50 at 3 days ([1]; CC50) [µM]
COc1cc(C(=O)NCC(O)(c2cc(C(C)(C)O)c(F)c(-c3ccc(F)cc3)n2)C(F)F)cc2cc(C)c(F)nc12 (single isomer, unassigned; (+)) [compound 213, (+)-N-{3,3-Difluoro-2-[5-Fluoro-6-(4-Fluorophenyl)-4-(2-Hydroxypropan-2-yl)Pyridin-2-yl]-2-Hydroxypropyl}-2-Fluoro-8-Methoxy-3-Methylquinoline-6-Carboxamide]	0.52	31	–	–	–
COc1cc(C(=O)NCC(O)(c2cc(C(C)(C)O)c(F)c(-c3ccc(F)cc3)n2)C(F)F)cc2cc(C)nnc12 (single isomer, unassigned; (+)) [compound 249, (+)-N-{3,3-Difluoro-2-[5-Fluoro-6-(4-Fluorophenyl)-4-(2-Hydroxypropan-2-yl)Pyridin-2-yl]-2-Hydroxypropyl}-8-Methoxy-3-Methylcinnoline-6-Carboxamide]	> 1.25	35	–	–	–
COc1cc(C(=O)NCC(O)(c2cc(C(C)(C)NC(C)=O)c(F)c(-c3ccc(F)cc3)n2)C(F)(F)F)cc2cc(C)nnc12 (single isomer, unassigned; (-)) [compound 235, (-)-N-{2-[4-(2-Acetamidopropan-2-yl)-5-Fluoro-6-(4-Fluorophenyl)Pyridin-2-yl]-3,3,3-Trifluoro-2-Hydroxypropyl}-8-Methoxy-3-Methylcinnoline-6-Carboxamide]	–	25	0.00062	–	–
COc1cc(C(=O)NCC(O)(c2cc(C(C)(C)O)c(F)c(-c3ccc(C4CC4)cc3)n2)C2CC2)cc2cc(C)nnc12 (single isomer, unassigned; (-)) [compound 254, (-)-N-{2-Cyclopropyl-2-[6-(4-Cyclopropylphenyl)-5-Fluoro-4-(2-Hydroxypropan-2-yl)Pyridin-2-yl]-2-Hydroxyethyl}-8-Methoxy-3-Methylcinnoline-6-Carboxamide]	–	15	0.0035	–	–
COc1cc(C(=O)NCC(O)(c2cc(C(C)(C)O)c(F)c(-c3cccc(F)c3)n2)C2CC2)cc2cc(C)nnc12 (single isomer, unassigned; (-)) [compound 255, (-)-N-{2-Cyclopropyl-2-[5-Fluoro-6-(3-Fluorophenyl)-4-(2-Hydroxypropan-2-yl)Pyridin-2-yl]-2-Hydroxyethyl}-8-Methoxy-3-Methylcinnoline-6-Carboxamide]	–	44	0.00081	–	–
Cc1cc2cc(C(=O)NCC(O)(c3cc(C(C)(C)O)c(F)c(-c4ccc(F)cc4)n3)C3CC3)cc(OC(F)F)c2nn1 (single isomer, unassigned; (-)) [compound 260, (-)-N-{2-Cyclopropyl-2-[5-Fluoro-6-(4-Fluorophenyl)-4-(2-Hydroxypropan-2-yl)Pyridin-2-yl]-2-Hydroxyethyl}-8-(Difluoromethoxy)-3-Methylcinnoline-6-Carboxamide]	–	19	0.0016	–	–
Cc1cc2cc(C(=O)NCC(O)(c3cc(C(C)(C)O)c(Cl)c(-c4ccc(F)cc4)n3)C(F)(F)F)cc(OC(F)(F)F)c2nn1 (single isomer, unassigned; (-)) [compound 261, (-)-N-{2-[5-Chloro-6-(4-Fluorophenyl)-4-(2-Hydroxypropan-2-yl)Pyridin-2-yl]-3,3,3-Trifluoro-2-Hydroxypropyl}-3-Methyl-8-(Trifluoromethoxy)Cinnoline-6-Carboxamide]	–	13	0.013	–	–
COc1cc(C(=O)NCC(O)(c2cc(C(C)(C)O)c(F)c(-c3ccc(F)cc3)n2)[C@H]2CC2(F)F)cc2cc(C)nnc12 (stereo in doubt) [compound 319, N-((*R)-2,2-Difluorocyclopropyl)-2-(5-Fluoro-6-(4-Fluorophenyl)-4-Hydroxypropan-2-yl)Pyridin-2-yl)-2-Hydroxyethyl)-8-Methoxy-3-Methylcinnoline-6-Carboxamide]	–	6.1	0.0012	–	–
COc1cc(C(=O)NCC(O)(c2cc(C(C)(C)O)c(F)c(-c3ccc(F)cc3)n2)[C@@H]2CC2(F)F)cc2cc(C)nnc12 (stereo in doubt) [compound 320, N-((*S)-2,2-Difluorocyclopropyl)-2-(5-Fluoro-6-(4-Fluorophenyl)-4-Hydroxypropan-2-yl)Pyridin-2-yl)-2-Hydroxyethyl)-8-MZthoxy-3-Methylcinnoline-6-Carboxamide]	–	24	0.001	–	–
CC(C)(O)c1cc([C@@](O)(CNC(=O)c2cc(OC3CC3)c3ncccc3c2)C(F)(F)F)nc(-c2ccc(F)cc2)c1F [Compound A, reference compound]	–	–	–	0.014	37
COc1cc(C(=O)NC[C@](O)(c2cc(C(C)(C)O)c(Cl)c(-c3ccc(F)cc3)n2)C(F)(F)F)cc2cc(C)cnc12 [compound 200, (-)-N-{2-[5-Chloro-6-(4-Fluorophenyl)-4-(2-Hydroxypropan-2-yl)Pyridin-2-yl]-3,3,3-Trifluoro-2-Hydroxypropyl}-8-Methoxy-3-Methylquinoline-6-Carboxamide]	–	22	0.0017	–	–
COc1cc(C(=O)NC[C@](O)(c2nc(-c3ccc(F)cc3)c(F)c(C(C)(C)O)c2F)C(F)(F)F)cc2cc(C)cnc12 [compound 201, (-)-N-{2-[3,5-difluoro-6-(4-fluorophenyl)-4-(2-hydroxypropan-2-yl)pyridin-2-yl)-3,3,3-trifluoro-2-hydroxypropyl}-8-methoxy-3-methylquinoline-6-carboxamide]	–	43	0.0026	–	–
COc1cc(C(=O)NC[C@](O)(c2nc(-c3ccc(F)cc3)c(Cl)c(C(C)(C)O)c2F)C(F)(F)F)cc2cc(C)cnc12 [compound 202]	–	46	0.0048	–	–
COc1cc(C(=O)NC[C@](O)(c2cc(C(C)(C)O)c(Cl)c(-c3ccc(F)cc3)n2)C2CC2)cc2cc(C)cnc12 [compound 205, (-)-N-{2-[5-Chloro-6-(4-Fluorophenyl)-4-(2-Hydroxypropan-2-yl)Pyridin-2-yl]-2-Cyclopropyl-2-Hydroxyethyl}-8-Methoxy-3-Methylquinoline-6-Carboxamide]	–	32	0.00081	–	–
COc1cc(C(=O)NC[C@](O)(c2cc(C(C)(C)O)c(F)c(-c3ccc(F)cc3)n2)C2CC2)cc2cc(C)cnc12 [compound 206]	–	15	0.00046	–	–
COc1cc(C(=O)NC[C@](O)(c2cc(C(C)(C)O)c(F)c(-c3ccc(C(F)(F)F)cc3)n2)C2CC2)cc2cc(C)cnc12 [compound 207]	–	13	0.00077	–	–
COc1cc(C(=O)NC[C@](O)(c2cc(C(C)(C)O)c(F)c(-c3ccc(Cl)cc3)n2)C2CC2)cc2cc(C)cnc12 [compound 208, (-)-N-{2-[6-(4-chlorophenyl)-5-fluoro-4-(2-hydroxypropan-2-yl)pyridin-2-yl]-2-cyclopropyl-2-hydroxyethyl}-8-methoxy-3-methylquinoline-6-carboxamide]	–	14	0.001	–	–
COc1cc(C(=O)NC[C@](O)(c2cc(C(C)(C)O)c(F)c(-c3ccc(F)c(F)c3)n2)C2CC2)cc2cc(C)cnc12 [compound 209, (-)-N-{2-Cyclopropyl-2-[6-(3,4-Difluorophenyl)-5-Fluoro-4-(2-Hydroxypropan-2-yl)Pyridin-2-yl]-2-Hydroxyethyl}-8-Methoxy-3-Methylquinoline-6-Carboxamide]	–	25	0.00041	–	–
COc1cc(C(=O)NC[C@](O)(c2cc(C(C)(C)O)c(Cl)c(-c3ccc(F)cc3)n2)C(F)(F)F)cc2cc(C)c(F)nc12 [compound 210, (-)-N-{2-[5-Chloro-6-(4-Fluorophenyl)-4-(2-Hydroxypropan-2-yl)Pyridin-2-yl]-3,3,3-Trifluoro-2-Hydroxypropyl}-2-Fluoro-8-Methoxy-3-Methylquinoline-6-Carboxamide]	–	23	0.0029	–	–
COc1cc(C(=O)NC[C@](O)(c2nc(-c3ccc(F)cc3)c(F)c(C(C)(C)O)c2F)C(F)(F)F)cc2cc(C)c(F)nc12 [compound 211, (-)-N-{2-[3,5-Difluoro-6-(4-Fluorophenyl)-4-(2-Hydroxypropan-2-yl)Pyridin-2-yl]-3,3,3-Trifluoro-2-Hydroxypropyl}-2-Fluoro-8-Methoxy-3-Methylquinoline-6-Carboxamide]	–	29	0.0028	–	–
COc1cc(C(=O)NC[C@](O)(c2nc(-c3ccc(F)cc3)c(Cl)c(C(C)(C)O)c2F)C(F)(F)F)cc2cc(C)c(F)nc12 [compound 212, (-)-N-{2-[5-Chloro-3-Fluoro-6-(4-Fluorophenyl)-4-(2-Hydroxypropan-2-yl)Pyridin-2-yl]-3,3,3-Trifluoro-2-Hydroxypropyl}-2-Fluoro-8-Methoxy-3-Methylquinoline-6-Carboxamide]	–	58	0.0071	–	–
